Reference: patent US6455593B1, “Method of dynamic retardation of cell cycle kinetics to potentiate cell damage” (priority 1995, dated 2002)

Test system: human promonocytic lymphoma cells (U937)
Assay: Microculture indicator system (MIS), MTT growth inhibition assay with bivariate serial dilutions
Assay type: cell-based
Conditions: for Combined results ratio / Growth inhibition (MTT): STSP 17 H, dGuo 0 H, STSP nM by row: r7 100, r8 50, r9 25, r10 12.5, r11 6.25, r12 3.13, r13-r14 0
Experimental: Microcultures of human promonocytic lymphoma cells (U937) (“the U937 cells”) originally obtained from the American Type Culture Collection (CRL 1593) and later grown by Dr. K. Zoon at the FDA in Bethesda, Md. were set up in a multiwell plate with serial two-fold dilutions of dThd in tissue culture growth medium (RPMI 1640 plus 10% Nurserum and antibiotics). The volume of medium per well was 100 μl and the cell number per well was about 1×10^5. The plate was incubated at 37° C. for 24 hr.
A dye, 3-[4,5-dimethylthiazol-2-yl]-2,5-diphenyl-tetrazolium bromide (MTT), was used as a chromogenic indicator of the metabolically active cell mass. Viable cells metabolize the dye and accumulate a reduced formazan product (blue color) which is solubilized for colorimetry. Mossman T, J. Immunol. Methods 5:55-63 (1983); Li L and Lau B H S, In Vitro Cell Dev. Biol. 29A:531-536 (1993). The MTT assay has been established as useful for measuring either growth inhibition or population killing. Plowman, supra. The MTT method is ideal for cells tested in suspension growth, and can also be used for some cells growing in monolayers. […] Alley, supra; Hofs, supra; Wilson J K et al., Br. J. Cancer 62:189-94 (1990); Plowman, supra.
Thirty μl of 0.5% MTT in phosphate buffered saline was added to each microculture well at the appropriate time. After incubation at 37° C. for 3 hr, 120 μl of an aqueous solution of 10 % SDS with 0.01 N HCl was added to release and dissolve formazan product. This was accomplished by overnight incubation of the plate at 37° C. After careful mixing of the microwell contents by placing the plates on an orbital shaker for 5 minutes the absorbencies were quantitated by spectrophotometry at 570 nm with a Ceres UV 900 HDI microwell plate reader (from Biotek Instruments Inc, Winooski, Vt. 05404-0998). Absorbance data was normalized to a blank well containing all reagents without cells and was collected semi-automatically.
Flat-bottom 96-well plates of tissue culture quality (Corning or Costar) were set up with two-fold serial dilutions of each agent to be tested, e.g., the RA and TCI, using a multichannel pipettor with adjustable volume, e.g., Costar or Rainin, to perform serial mixing. This set-up is diagrammed in FIG. 12. […] In each plate, a total of 59 wells then contained bivariate agent combinations, the bivariate serial dilutions.
Agents were serially diluted by serial mixing in two separate plates or series of wells, and then were combined prior to addition of a fixed volume and density of the U937 cells in a suspension calculated to deliver about 1×10^5 cells per well.
Cells were added after serial dilutions of the dThd had been dispensed. Cells were dispensed at about 10×10^4 cells per microwell to provide optimal sensitivity of detection of cell damage in subsequent calorimetric assays. […] The final volume of medium was 100 μl/well. The plates were further incubated at 37° C. for a total duration of 18-24 h. The dye MTT was used as a chromogenic indicator of the residual and metabolically active cell mass. (Described in Example 1).
In this MTT assay, normalized absorbance data was collected semi-automatically from each microculture well with a Ceres UV 900 HD1 plate reader, from Biotek Instruments Inc., Winooski, V T 05404-0998, stored in an EIA file under the Ceres 900 program, transferred in comma delimited format to a floppy diskette, and imported into a spread sheet program (Borland Quattro Pro) for data manipulations.

[1] = U937, total 17 H, dGuo 0.01 mM (ninth dilution, c19)
[2] = U937, total 17 H, dGuo 0.01 mM (tenth dilution, c21)

## Nc1nc2c(ncn2[C@H]2C[C@H](O)[C@@H](CO)O2)c(=O)[nH]1 [dGuo]
U937, dGuo 0.02 mM for 0 H, STSP for 17 H, total 17 H, STSP nM: 100,50,25,12.5,6.25,3.13, r13 dGuo alone
  Combined results ratio (CRR), dGuo 0.02 mM: 1.0
U937, dGuo 0.02 mM for 0 H, STSP for 17 H, total 17 H, STSP nM: 100,50,25,12.5,6.25,3.13, r14 dGuo alone
  Growth inhibition (MTT), dGuo 0.02 mM: 10%
U937, dGuo 0.06 mM for 0 H, STSP for 17 H, total 17 H, STSP nM: 100,50,25,12.5,6.25,3.13, r13 dGuo alone
  Combined results ratio (CRR), dGuo 0.06 mM: 1.0
U937, dGuo 0.06 mM for 0 H, STSP for 17 H, total 17 H, STSP nM: 100,50,25,12.5,6.25,3.13, r14 dGuo alone
  Growth inhibition (MTT), dGuo 0.06 mM: 25%
U937, dGuo 0.09 mM for 0 H, STSP for 17 H, total 17 H, STSP nM: 100,50,25,12.5,6.25,3.13, r13 dGuo alone
  Combined results ratio (CRR), dGuo 0.09 mM: 1.0
U937, dGuo 0.09 mM for 0 H, STSP for 17 H, total 17 H, STSP nM: 100,50,25,12.5,6.25,3.13, r14 dGuo alone
  Growth inhibition (MTT), dGuo 0.09 mM: 57%
U937, dGuo 3.00 mM for 0 H, STSP for 17 H, total 17 H, STSP nM: 100,50,25,12.5,6.25,3.13, r13 dGuo alone
  Combined results ratio (CRR), dGuo 3.00 mM: 1.0
U937, dGuo 3.00 mM for 0 H, STSP for 17 H, total 17 H, STSP nM: 100,50,25,12.5,6.25,3.13, r14 dGuo alone
  Growth inhibition (MTT), dGuo 3.00 mM: 93%
U937, dGuo […] for 0 H, STSP for 17 H, total 17 H, STSP nM: 100,50,25,12.5,6.25,3.13, r13 dGuo alone
  Combined results ratio (CRR), dGuo […]: 1.0
[1]
  Combined results ratio: 1.0
  Growth inhibition (MTT): 2%
[2]
  Combined results ratio: 1.0
  Growth inhibition (MTT): 2%
U937, total 17 H, dGuo 0.02 mM
  Combined results ratio: 1.0
  Growth inhibition (MTT): 10%
U937, total 17 H, dGuo 0.06 mM
  Combined results ratio: 1.0
  Growth inhibition (MTT): 25%
U937, total 17 H, dGuo 0.09 mM
  Combined results ratio: 1.0
  Growth inhibition (MTT): 57%
U937, total 17 H, dGuo 3.00 mM
  Combined results ratio: 1.0
  Growth inhibition (MTT): 93%

## O=c1[nH]c(=O)n([C@H]2C[C@H](O)[C@@H](CO)O2)cc1F [floxuridine]
U937, concentrations less than IC40, STSP as the TCI
  Potentiation of DNA damage by STSP as RA: proved successful in potentiating DNA damage by STSP

## bleomycin
MTT #523, total 20 Hours, bleomycin 16 Hours, no STSP, bleomycin mU by row: r9 160, r10 80, r11 40, r12 20, r13 10, r14 5
  Combined results ratio, bleomycin only: 1.0
